Assay results taken from US20230398068A1 (priority 2020, published 2023).
pEC50: −log10 of the molar value.

Legend:
[1] = Frisk-Holmberg et al., Cui et al.; cited from earlier work
[2] = test system: 3D organotypic human bronchial cultures; experiment: Transepithelial electrical resistance (TEER); conditions: post 24 h exposure
[3] = test system: novel coronavirus (2019-nCoV); conditions: cited from earlier work
[4] = Thermal decomposition during thermal aerosolization (LC-HR-MS); conditions: LC-HR-MS spectra of aerosol sample
[5] = test system: SARS-CoV-2 clinically isolated strain; conditions: Vero cells, 24 hours, Yao et al.; cited from earlier work
[6] = Aerosol particle size distribution (Aerodynamic Particle Sizer); conditions: thermal aerosolization 200-220° C., 40 mg/mL in propylene glycol
[7] = Transfer rate assessment, liquid formulation to aerosol (Cambridge filter pad, LC-HR-MS); conditions: 30 puffs collected

Compound | plasma concentration at which no adverse reactions are observed [1] [ng/mL] | warning limit plasma concentration at which 80% of the subjects showed adverse effects [1] [ng/mL] | TEER ([2]; 50 puffs) | TEER ([2]; 100 puffs) | pEC50 ([3]; block of COVID-19 infection in vitro, Wang et al., read-out: half-maximal effective concentration (EC50)) | in vitro EC50 ([3]; values from Wang et al.) [µg/mL] | in vitro EC90 ([3]; values from Wang et al.) [µg/mL] | decomposition during thermal aerosolization [4] | pEC50 [5] | median aerodynamic diameter of aerosol particles [6] [μm] | amount per puff in aerosol ([7]; 40 mg/mL chloroquine liquid formulation) [µg] | amount per puff in aerosol ([7]; 100 mg/mL hydroxychloroquine liquid formulation) [µg]
CCN(CC)CCCC(C)Nc1ccnc2cc(Cl)ccc12 (stereo not shown) [chloroquine] | 400 | 800 | very low TEER values for two replicates | no overall effect | 5.95 | 0.362 | 2.208 | no decomposition | 4.62 | 1.3 | 149.69 | 
CCN(CCO)CCCC(C)Nc1ccnc2cc(Cl)ccc12 (stereo not shown) [hydroxychloroquine] |  |  |  |  |  |  |  | no decomposition |  |  |  | 330.32
